Experimental data from the NIST ThermoML archive (doi:10.1021/je101178u).
Several values for one entry are separate records, joined by “and”; a condition that tells them apart may be missing. Equal values may be shown once.

Settings: 423.15 K, Fluid (supercritical or subcritical phases); for viscosity: vibrating wire; for mass density: Buoyancy - hydrostatic balance with magnetic suspension - one sinker

CCC [propane]
Settings	mass density	viscosity
1334.7 kPa	–	0.01162 mPa·s
1335.7 kPa	18.032 kg/m3	0.01162 mPa·s
1454.8 kPa	19.782 kg/m3 and 19.781 kg/m3	0.01166 mPa·s
2110 kPa	29.905 kg/m3	0.01189 mPa·s
2110.7 kPa	29.916 kg/m3	0.01189 mPa·s
2704.3 kPa	39.922 kg/m3	0.01217 mPa·s
2704.8 kPa	39.931 kg/m3	0.01217 mPa·s
3242.6 kPa	49.821 kg/m3	0.01248 mPa·s
3243.3 kPa	49.834 kg/m3	0.01248 mPa·s
3747.9 kPa	59.965 kg/m3	0.01283 mPa·s
3749.2 kPa	59.991 kg/m3	0.01284 mPa·s
4207.4 kPa	70.041 kg/m3	0.01323 mPa·s
4207.9 kPa	70.052 kg/m3	0.01323 mPa·s
4616.7 kPa	79.819 kg/m3	0.01365 mPa·s
4617.3 kPa	79.834 kg/m3	0.01365 mPa·s
5007.5 kPa	89.97 kg/m3	0.01412 mPa·s
5008.6 kPa	90.002 kg/m3	0.01412 mPa·s
5358.6 kPa	99.87 kg/m3	0.01462 mPa·s
5360.2 kPa	99.917 kg/m3	0.01462 mPa·s
5989.5 kPa	119.759 kg/m3	0.01573 mPa·s
5989.8 kPa	119.769 kg/m3	0.01573 mPa·s
6545.1 kPa	139.717 kg/m3	0.017 mPa·s
6545.3 kPa	139.725 kg/m3	0.017 mPa·s
7033 kPa	159.017 kg/m3	0.01838 mPa·s
7033.7 kPa	159.048 kg/m3	0.01838 mPa·s
7520.1 kPa	179.397 kg/m3	0.02002 mPa·s
7520.8 kPa	179.425 kg/m3	0.02002 mPa·s
7992.2 kPa	199.277 kg/m3	0.02182 mPa·s
7992.6 kPa	199.294 kg/m3	0.02182 mPa·s
8516 kPa	220.253 kg/m3	0.02395 mPa·s
8516.4 kPa	220.267 kg/m3	0.02394 mPa·s
9079.6 kPa	240.483 kg/m3	0.02624 mPa·s
9079.9 kPa	240.492 kg/m3	0.02623 mPa·s
9738.4 kPa	260.609 kg/m3	0.02877 mPa·s
9738.5 kPa	260.612 kg/m3	0.02878 mPa·s
10543 kPa	280.635 kg/m3	0.03161 mPa·s
10544 kPa	280.644 kg/m3	0.0316 mPa·s
11566 kPa	300.645 kg/m3 and 300.654 kg/m3	0.03477 mPa·s
12882 kPa	320.474 kg/m3	0.03827 mPa·s
12884 kPa	320.488 kg/m3	0.03828 mPa·s
14693 kPa	341.059 kg/m3	0.04235 mPa·s and 0.04234 mPa·s
17064 kPa	361.23 kg/m3	0.04694 mPa·s
17065 kPa	361.234 kg/m3	0.04691 mPa·s
20192 kPa	381.227 kg/m3	0.05209 mPa·s
20193 kPa	381.229 kg/m3	0.05209 mPa·s
24333 kPa	401.231 kg/m3	0.05798 mPa·s
24334 kPa	401.235 kg/m3	0.05795 mPa·s
29700 kPa	421.002 kg/m3	0.06464 mPa·s
29703 kPa	421.011 kg/m3	0.06466 mPa·s
